Measurements published in PMC9944927, “Mutant structure of metabolic switch protein in complex with monomeric c-di-GMP reveals a potential mechanism of protein-mediated ligand dimerization” (Scientific Reports, 2023).

Key:
[1] = target: T1, SmbA (Caulobacter vibrioides, UniProt Q9A5E6); assay: ITC (apparent Kd); AUC sedimentation shift; assay type: binding
T1 construct: gene CC_2504; SmbAwt, His6
T1 sequence (Q9A5E6 1-296): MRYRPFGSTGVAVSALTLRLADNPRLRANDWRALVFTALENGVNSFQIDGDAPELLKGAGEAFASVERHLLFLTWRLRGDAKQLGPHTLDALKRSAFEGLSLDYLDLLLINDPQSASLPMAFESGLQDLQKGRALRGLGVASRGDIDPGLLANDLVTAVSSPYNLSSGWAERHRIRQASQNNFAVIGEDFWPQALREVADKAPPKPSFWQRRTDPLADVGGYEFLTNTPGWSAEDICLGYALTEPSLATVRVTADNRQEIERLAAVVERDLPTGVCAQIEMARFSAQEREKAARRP

[2] = target: T2, SmbA (Caulobacter vibrioides, UniProt Q9A5E6, DEL198-215); assay: X-ray crystal structure at […] Å; ITC ([…] stoichiometry); assay type: binding
T2 construct: gene CC_2504; SmbA∆loop, partial loop 7 deletion (fragment 198–215 deleted), His6
T2 sequence (Q9A5E6 with tags, fused parts or gaps DEL198-215): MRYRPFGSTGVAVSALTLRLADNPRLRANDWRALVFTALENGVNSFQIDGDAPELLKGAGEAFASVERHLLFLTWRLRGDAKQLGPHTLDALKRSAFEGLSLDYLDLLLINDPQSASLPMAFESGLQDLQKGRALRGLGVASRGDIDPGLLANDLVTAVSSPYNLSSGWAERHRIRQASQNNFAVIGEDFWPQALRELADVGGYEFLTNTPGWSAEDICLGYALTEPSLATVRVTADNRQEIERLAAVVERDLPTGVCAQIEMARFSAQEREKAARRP

Nc1nc2c(ncn2[C@@H]2O[C@@H]3CO[P@](=O)(O)O[C@H]4[C@@H](O)[C@H](n5cnc6c(=O)[nH]c(N)nc65)O[C@@H]4CO[P@](=O)(O)O[C@H]3[C@H]2O)c(=O)[nH]1 [c-di-GMP]
Kd [1]: 300 nM | Kd [2]: 1800 nM
